{
  "source": "paper PMC2706530",
  "about": "(Hypertension, 2009)",
  "type_in_all_cases": "biochemical",
  "key": {"[1]": {"tested_on": "ANG-II type 1-receptor", "assay": "Effect of losartan pre-incubation on ANG-II detection in isolated rat glomeruli", "conditions": "pre-incubation with 10 μM losartan, 1 μM ANG-I; data not shown"}, "[2]": {"target": "aminopeptidase-A (Rattus norvegicus, UniProt P50123)", "sequence (P50123 whole entry)": "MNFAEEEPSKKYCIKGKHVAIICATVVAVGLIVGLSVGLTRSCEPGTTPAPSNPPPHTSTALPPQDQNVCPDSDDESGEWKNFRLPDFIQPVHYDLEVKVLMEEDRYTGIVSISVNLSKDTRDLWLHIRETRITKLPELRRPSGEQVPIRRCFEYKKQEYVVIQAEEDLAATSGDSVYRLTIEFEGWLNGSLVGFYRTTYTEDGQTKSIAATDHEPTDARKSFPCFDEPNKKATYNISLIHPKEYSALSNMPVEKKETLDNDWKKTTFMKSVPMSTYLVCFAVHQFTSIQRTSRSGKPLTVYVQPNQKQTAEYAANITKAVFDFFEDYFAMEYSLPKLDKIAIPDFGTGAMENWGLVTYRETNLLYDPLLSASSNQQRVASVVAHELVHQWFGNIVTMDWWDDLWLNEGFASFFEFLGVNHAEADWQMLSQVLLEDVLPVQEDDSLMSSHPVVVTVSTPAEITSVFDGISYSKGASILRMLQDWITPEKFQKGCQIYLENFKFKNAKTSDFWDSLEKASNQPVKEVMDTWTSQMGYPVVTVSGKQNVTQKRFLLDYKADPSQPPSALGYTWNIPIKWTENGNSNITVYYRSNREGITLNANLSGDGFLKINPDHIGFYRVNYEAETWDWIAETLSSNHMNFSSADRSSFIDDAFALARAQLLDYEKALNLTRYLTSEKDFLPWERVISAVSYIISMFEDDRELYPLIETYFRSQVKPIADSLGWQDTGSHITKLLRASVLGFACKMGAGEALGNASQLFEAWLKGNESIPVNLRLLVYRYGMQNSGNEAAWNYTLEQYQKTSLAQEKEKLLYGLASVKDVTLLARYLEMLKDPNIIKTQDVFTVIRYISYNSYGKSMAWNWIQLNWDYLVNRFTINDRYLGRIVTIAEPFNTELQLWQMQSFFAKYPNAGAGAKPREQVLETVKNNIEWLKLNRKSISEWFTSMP", "assay": "Effect of APA inhibitor on ANG-I conversion by isolated rat glomeruli", "conditions": "100 μM amastatin, 1 μM ANG-I"}, "[3]": {"target": "T1, neprilysin (Rattus norvegicus, UniProt P07861)", "T1 sequence (P07861 1-750)": "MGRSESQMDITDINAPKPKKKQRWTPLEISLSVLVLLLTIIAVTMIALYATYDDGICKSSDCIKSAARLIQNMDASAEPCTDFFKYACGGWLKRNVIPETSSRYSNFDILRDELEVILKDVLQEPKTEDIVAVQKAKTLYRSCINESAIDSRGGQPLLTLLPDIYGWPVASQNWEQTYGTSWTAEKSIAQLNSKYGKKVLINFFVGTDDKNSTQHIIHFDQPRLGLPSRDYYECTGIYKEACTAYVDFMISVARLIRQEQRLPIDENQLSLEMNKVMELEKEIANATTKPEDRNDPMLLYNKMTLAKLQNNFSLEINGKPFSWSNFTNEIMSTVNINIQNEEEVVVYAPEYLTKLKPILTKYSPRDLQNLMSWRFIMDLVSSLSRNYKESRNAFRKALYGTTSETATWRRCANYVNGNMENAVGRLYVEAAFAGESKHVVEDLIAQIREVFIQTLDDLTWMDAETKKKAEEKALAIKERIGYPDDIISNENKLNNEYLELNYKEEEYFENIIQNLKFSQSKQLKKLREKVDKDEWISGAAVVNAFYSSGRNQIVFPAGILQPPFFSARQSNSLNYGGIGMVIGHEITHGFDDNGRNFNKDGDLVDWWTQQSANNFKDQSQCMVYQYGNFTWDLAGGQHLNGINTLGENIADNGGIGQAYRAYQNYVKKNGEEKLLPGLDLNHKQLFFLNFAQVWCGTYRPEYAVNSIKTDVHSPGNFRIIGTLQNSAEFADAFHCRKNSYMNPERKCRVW", "assay": "Effect of NEP inhibitor on ANG-I conversion by isolated rat glomeruli", "conditions": "10 μM thiorphan, 1 μM ANG-I, 15-90 minutes; p < 0.05 vs. untreated; n=7"}},
  "data": [
    {"smiles": "CCCCc1nc(Cl)c(CO)n1Cc1ccc(-c2ccccc2-c2nn[nH]n2)cc1", "note": "[losartan]", "values": [
      {"measurement": "effect on detection of ANG-II", "setting": "[1]", "value": "did not enhance the detection of ANG-II"}
    ]},
    {"smiles": "CC(C)C[C@@H](N)[C@H](O)C(=O)N[C@H](C(=O)N[C@H](C(=O)N[C@@H](CC(=O)O)C(=O)O)C(C)C)C(C)C", "note": "[amastatin]", "values": [
      {"measurement": "effect on disappearance of ANG-I (APA inhibition)", "setting": "[2]; 15-90 minutes, p < 0.05 vs. untreated, n=7", "value": "significantly reduced"},
      {"measurement": "change in ANG-II, amastatin-treated", "setting": "[2]; 60 minutes", "value": "non-significant increase"}
    ]},
    {"smiles": "O=C(O)CNC(=O)C(CS)Cc1ccccc1", "note": "(stereo not shown) [thiorphan]", "values": [
      {"measurement": "effect on disappearance of ANG-I (NEP inhibition)", "setting": "[3]", "value": "significantly reduced"}
    ]}
  ]
}
